{"source": "paper PMC6345968", "about": "“Structural basis for species-selective targeting of Hsp90 in a pathogenic fungus” (Nature Communications, 2019)", "key": {"C. albicans Hsp90 NBD": {"target": "T1, C. albicans Hsp90 NBD (Candida albicans, UniProt P46598)", "T1 construct": "C. albicans Hsp90 (E7-K218); made in house; host or cells: E. coli Rosetta2", "T1 sequence (P46598 7-218)": "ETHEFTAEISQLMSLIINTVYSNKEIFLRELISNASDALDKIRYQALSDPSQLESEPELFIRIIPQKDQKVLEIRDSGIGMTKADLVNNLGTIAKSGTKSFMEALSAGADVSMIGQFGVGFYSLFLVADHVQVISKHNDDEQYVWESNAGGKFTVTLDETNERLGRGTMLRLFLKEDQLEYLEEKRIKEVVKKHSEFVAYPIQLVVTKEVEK", "assay": "biochemical", "assay_type": "binding"}, "human Grp94 NBD": {"target": "human Grp94 NBD (Homo sapiens, UniProt P14625)", "sequence (P14625 63-337)": "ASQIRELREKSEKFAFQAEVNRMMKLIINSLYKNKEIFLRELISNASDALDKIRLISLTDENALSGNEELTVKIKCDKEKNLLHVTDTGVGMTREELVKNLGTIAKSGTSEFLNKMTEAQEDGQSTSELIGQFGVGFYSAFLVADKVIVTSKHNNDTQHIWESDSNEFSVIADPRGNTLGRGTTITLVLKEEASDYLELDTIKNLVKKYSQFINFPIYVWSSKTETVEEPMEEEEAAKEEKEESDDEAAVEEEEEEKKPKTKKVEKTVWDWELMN", "assay": "biochemical"}, "[1]": {"target": "T2, Hsp90 in C. albicans (SC5314) lysate (Candida albicans, UniProt P46598)", "T2 construct": "endogenous in cells; host or cells: C. albicans SC5314 whole-cell lysate", "T2 sequence (P46598 whole entry)": "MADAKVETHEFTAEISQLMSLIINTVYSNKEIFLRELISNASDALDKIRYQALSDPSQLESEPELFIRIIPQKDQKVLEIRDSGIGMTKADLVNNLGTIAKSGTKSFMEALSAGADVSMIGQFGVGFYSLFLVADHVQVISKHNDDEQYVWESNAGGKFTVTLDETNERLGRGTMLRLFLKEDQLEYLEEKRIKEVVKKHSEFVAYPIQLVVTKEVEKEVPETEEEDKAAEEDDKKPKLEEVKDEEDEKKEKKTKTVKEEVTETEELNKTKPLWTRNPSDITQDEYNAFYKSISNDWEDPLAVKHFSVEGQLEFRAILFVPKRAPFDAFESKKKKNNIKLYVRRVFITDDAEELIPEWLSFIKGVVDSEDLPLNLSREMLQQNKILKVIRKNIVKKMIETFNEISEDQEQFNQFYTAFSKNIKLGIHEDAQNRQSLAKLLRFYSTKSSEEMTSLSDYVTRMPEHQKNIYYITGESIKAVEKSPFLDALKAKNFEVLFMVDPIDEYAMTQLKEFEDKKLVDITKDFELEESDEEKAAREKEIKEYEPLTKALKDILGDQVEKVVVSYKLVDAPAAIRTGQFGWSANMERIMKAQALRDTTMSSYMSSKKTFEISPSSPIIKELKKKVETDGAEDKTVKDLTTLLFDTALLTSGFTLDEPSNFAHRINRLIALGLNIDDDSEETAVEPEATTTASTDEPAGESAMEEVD", "assay": "biochemical", "assay_type": "binding", "conditions": "for FP signal: raw"}, "Hsp90 in HEPG2 lysate": {"test_system": "Hsp90 in HEPG2 lysate", "conditions": "for FP signal (raw) / FP signal: HepG2 lysate; for FP signal: raw"}, "Hsp90 in 3T3 lysate": {"test_system": "Hsp90 in 3T3 lysate", "assay": "FP competition in whole-cell lysate", "assay_type": "binding, mouse", "conditions": "quiescent 3T3 cells, FP", "method": "After vortexing, cell lysate was frozen at −80 °C for 2 h, followed by thawing on ice. The vortex-freeze-thaw step was repeated. […] Aliquots were thawed immediately prior to use."}, "human Hsp90 NBD": {"target": "human Hsp90 NBD (Homo sapiens, UniProt P08238)", "sequence (P08238 1-223)": "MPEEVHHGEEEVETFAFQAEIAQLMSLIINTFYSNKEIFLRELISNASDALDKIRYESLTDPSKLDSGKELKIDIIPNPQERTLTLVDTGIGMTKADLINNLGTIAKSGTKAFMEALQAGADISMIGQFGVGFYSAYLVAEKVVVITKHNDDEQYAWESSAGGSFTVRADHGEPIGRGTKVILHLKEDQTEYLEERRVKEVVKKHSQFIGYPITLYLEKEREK", "assay": "biochemical"}, "[2]": {"conditions": "I50, single experiments Expt 1-3"}, "[3]": {"conditions": "IC50 (Equation 16), corrected I50, single experiments, unit inferred"}, "[4]": {"conditions": "Inhibitor Ki, single experiments Expt 1-3"}, "[5]": {"conditions": "Ki, purified NBD, Cy3-GdA probe, mean (± SEM) of 3 experiments"}, "[6]": {"conditions": "SC5314 lysate, 0.457 nM compound"}, "[7]": {"conditions": "SC5314 lysate, 1.372 nM compound"}, "[8]": {"conditions": "SC5314 lysate, 4.115 nM compound"}, "[9]": {"conditions": "SC5314 lysate, 12.346 nM compound"}, "[10]": {"conditions": "SC5314 lysate, 37.037 nM compound"}, "[11]": {"conditions": "SC5314 lysate, 111.111 nM compound"}, "[12]": {"conditions": "SC5314 lysate, 333.333 nM compound"}, "[13]": {"conditions": "SC5314 lysate, 1000 nM compound"}, "[14]": {"conditions": "SC5314 lysate, 3000 nM compound"}}, "note": "Values joined by “and” are separate entries in the source; they are usually repeats but may differ in a detail not shown here. Equal entries are not always repeated. Where two headings read alike, the source gives them in different places."}
{"smiles": "COc1ccc(CON=C2C=CC=CC3OC3CC(C)OC(=O)c3c(O)cc(O)cc3C2)cc1", "note": "(stereo not drawn) [CMLD013075]", "values": [{"measurement": "IC50", "setting": "C. albicans Hsp90 NBD; corrected I50, single experiments, unit inferred, read-out: IC50 (Equation 16)", "result": "77.3 nM and 78.8 nM and 44 nM"}, {"measurement": "Ki", "setting": "C. albicans Hsp90 NBD; purified NBD, Cy3-GdA probe, mean (± SEM) of 3 experiments, read-out: Ki", "result": 7.7, "unit": "nM"}, {"measurement": "selectivity for fungal Hsp90 NBD over human Grp94 NBD", "setting": "C. albicans Hsp90 NBD; purified NBDs, FP", "result": "~ 5 fold and 5 fold"}, {"measurement": "selectivity for fungal Hsp90 NBD over human Hsp90 NBD", "setting": "C. albicans Hsp90 NBD; purified NBDs, FP", "result": "~ 28 fold and > 25 fold"}, {"measurement": "IC50", "setting": "C. albicans Hsp90 NBD; single experiments Expt 1-3, read-out: I50", "result": "82.3 nM and 83.8 nM and 47.8 nM"}, {"measurement": "Ki", "setting": "C. albicans Hsp90 NBD; single experiments Expt 1-3, read-out: Inhibitor Ki", "result": "8.8 nM (2×) and 5.5 nM"}, {"measurement": "IC50", "setting": "human Grp94 NBD; [2]", "result": "429 nM and 490 nM and 261 nM"}, {"measurement": "IC50", "setting": "human Grp94 NBD; [3]", "result": "426 nM and 486 nM and 257 nM"}, {"measurement": "Ki", "setting": "human Grp94 NBD; [4]", "result": "43.6 nM and 48.9 nM and 26.4 nM"}, {"measurement": "Ki", "setting": "human Grp94 NBD; [5]", "result": 39.6, "unit": "nM"}, {"measurement": "normalized fungal selectivity in lysates", "setting": "[1]; C. albicans SC5314 vs HEPG2 lysate, FP", "result": 4.6, "unit": "fold"}, {"measurement": "relative binding affinity in fungal vs mammalian lysates", "setting": "[1]; C. albicans vs HEPG2 and 3T3 lysates, FP", "result": "higher"}, {"measurement": "EC50", "setting": "[1]; EC50, SC5314 lysate, not normalized, oxime panel experiment 220817", "result": 505, "unit": "nM"}, {"measurement": "Ratio re. GdA", "setting": "[1]; EC50 relative to GdA, SC5314 lysate", "result": 29.6649}, {"measurement": "FP signal (raw)", "setting": "[1]; SC5314 lysate, 0.457 nM", "result": 200}, {"measurement": "FP signal relative to 0 nM", "setting": "[1]; [6]", "result": 0.9709}, {"measurement": "FP signal", "setting": "[1]; [6]", "result": 200}, {"measurement": "FP signal (raw)", "setting": "[1]; SC5314 lysate, 1.372 nM", "result": 200}, {"measurement": "FP signal relative to 0 nM", "setting": "[1]; [7]", "result": 0.9709}, {"measurement": "FP signal", "setting": "[1]; [7]", "result": 200}, {"measurement": "FP signal (raw)", "setting": "[1]; SC5314 lysate, 4.115 nM", "result": 199}, {"measurement": "FP signal relative to 0 nM", "setting": "[1]; [8]", "result": 0.966}, {"measurement": "FP signal", "setting": "[1]; [8]", "result": 199}, {"measurement": "FP signal (raw)", "setting": "[1]; SC5314 lysate, 12.346 nM", "result": 199}, {"measurement": "FP signal relative to 0 nM", "setting": "[1]; [9]", "result": 0.966}, {"measurement": "FP signal", "setting": "[1]; [9]", "result": 199}, {"measurement": "FP signal (raw)", "setting": "[1]; SC5314 lysate, 37.037 nM", "result": 196}, {"measurement": "FP signal relative to 0 nM", "setting": "[1]; [10]", "result": 0.9515}, {"measurement": "FP signal", "setting": "[1]; [10]", "result": 196}, {"measurement": "FP signal (raw)", "setting": "[1]; SC5314 lysate, 111.111 nM", "result": 182}, {"measurement": "FP signal relative to 0 nM", "setting": "[1]; [11]", "result": 0.8835}, {"measurement": "FP signal", "setting": "[1]; [11]", "result": 182}, {"measurement": "FP signal (raw)", "setting": "[1]; SC5314 lysate, 333.333 nM", "result": 146}, {"measurement": "FP signal relative to 0 nM", "setting": "[1]; [12]", "result": 0.7087}, {"measurement": "FP signal", "setting": "[1]; [12]", "result": 146}, {"measurement": "FP signal (raw)", "setting": "[1]; SC5314 lysate, 1000 nM", "result": 69}, {"measurement": "FP signal relative to 0 nM", "setting": "[1]; [13]", "result": 0.335}, {"measurement": "FP signal", "setting": "[1]; [13]", "result": 69}, {"measurement": "FP signal (raw)", "setting": "[1]; SC5314 lysate, 3000 nM", "result": 40}, {"measurement": "FP signal relative to 0 nM", "setting": "[1]; [14]", "result": 0.1942}, {"measurement": "FP signal", "setting": "[1]; [14]", "result": 40}, {"measurement": "HepG2/SC5314", "setting": "[1]; ratio of GdA-normalized EC50s, human over fungal lysate", "result": 4.5595}, {"measurement": "HepG2/SC5314", "setting": "[1]; ratio of GdA-relative EC50 ratios, HepG2 over SC5314", "result": 4.5595}, {"measurement": "Ratio rel. GdA (HepG2)", "setting": "Hsp90 in HEPG2 lysate; EC50 / EC50 of GdA in HepG2 lysate", "result": 135.257}, {"measurement": "Ratio rel. GdA (HepG2)", "setting": "Hsp90 in HEPG2 lysate; EC50 relative to GdA, HEPG2 lysate", "result": 135.257}, {"measurement": "FP signal, Fxn Control", "setting": "Hsp90 in HEPG2 lysate; HEPG2 lysate, log concentration 0.137354 (1.372 nM)", "result": 0.9857}, {"measurement": "FP signal, Fxn Control", "setting": "Hsp90 in HEPG2 lysate; HEPG2 lysate, log concentration 0.61437 (4.115 nM)", "result": 0.9905}, {"measurement": "FP signal, Fxn Control", "setting": "Hsp90 in HEPG2 lysate; HEPG2 lysate, log concentration 1.09153 (12.346 nM)", "result": 1}, {"measurement": "FP signal, Fxn Control", "setting": "Hsp90 in HEPG2 lysate; HEPG2 lysate, log concentration 1.56864 (37.037 nM)", "result": 1.005}, {"measurement": "FP signal, Fxn Control", "setting": "Hsp90 in HEPG2 lysate; HEPG2 lysate, log concentration 2.04576 (111.111 nM)", "result": 0.9905}, {"measurement": "FP signal, Fxn Control", "setting": "Hsp90 in HEPG2 lysate; HEPG2 lysate, log concentration 2.52288 (333.333 nM)", "result": 0.9762}, {"measurement": "FP signal, Fxn Control", "setting": "Hsp90 in HEPG2 lysate; HEPG2 lysate, log concentration 3 (1000 nM)", "result": 0.8333}, {"measurement": "FP signal, Fxn Control", "setting": "Hsp90 in HEPG2 lysate; HEPG2 lysate, log concentration 3.47712 (3000 nM)", "result": 0.5286}, {"measurement": "FP signal, Fxn Control", "setting": "Hsp90 in HEPG2 lysate; HEPG2 lysate, log concentration -0.340084 (0.457 nM)", "result": 0.9857}, {"measurement": "FP signal (raw)", "setting": "Hsp90 in HEPG2 lysate; 0.457 nM", "result": 207}, {"measurement": "FP signal", "setting": "Hsp90 in HEPG2 lysate; 0.457 nM compound", "result": 207}, {"measurement": "FP signal (raw)", "setting": "Hsp90 in HEPG2 lysate; 1.372 nM", "result": 207}, {"measurement": "FP signal", "setting": "Hsp90 in HEPG2 lysate; 1.372 nM compound", "result": 207}, {"measurement": "FP signal (raw)", "setting": "Hsp90 in HEPG2 lysate; 4.115 nM", "result": 208}, {"measurement": "FP signal", "setting": "Hsp90 in HEPG2 lysate; 4.115 nM compound", "result": 208}, {"measurement": "FP signal (raw)", "setting": "Hsp90 in HEPG2 lysate; 12.346 nM", "result": 210}, {"measurement": "FP signal", "setting": "Hsp90 in HEPG2 lysate; 12.346 nM compound", "result": 210}, {"measurement": "FP signal (raw)", "setting": "Hsp90 in HEPG2 lysate; 37.037 nM", "result": 211}, {"measurement": "FP signal", "setting": "Hsp90 in HEPG2 lysate; 37.037 nM compound", "result": 211}, {"measurement": "FP signal (raw)", "setting": "Hsp90 in HEPG2 lysate; 111.111 nM", "result": 208}, {"measurement": "FP signal", "setting": "Hsp90 in HEPG2 lysate; 111.111 nM compound", "result": 208}, {"measurement": "FP signal (raw)", "setting": "Hsp90 in HEPG2 lysate; 333.333 nM", "result": 205}, {"measurement": "FP signal", "setting": "Hsp90 in HEPG2 lysate; 333.333 nM compound", "result": 205}, {"measurement": "FP signal (raw)", "setting": "Hsp90 in HEPG2 lysate; 1000 nM", "result": 175}, {"measurement": "FP signal", "setting": "Hsp90 in HEPG2 lysate; 1000 nM compound", "result": 175}, {"measurement": "FP signal (raw)", "setting": "Hsp90 in HEPG2 lysate; 3000 nM", "result": 111}, {"measurement": "FP signal", "setting": "Hsp90 in HEPG2 lysate; 3000 nM compound", "result": 111}, {"measurement": "heat-shock reporter activation", "setting": "293T reporter cells", "result": "activation required much higher concentrations"}, {"measurement": "relative binding affinity in 3T3 lysate vs HEPG2 lysate", "setting": "Hsp90 in 3T3 lysate", "result": "lower in 3T3 lysate than HEPG2 lysate"}, {"measurement": "IC50", "setting": "human Hsp90 NBD; [2]", "result": "1650 nM and 1630 nM and 1250 nM"}, {"measurement": "IC50", "setting": "human Hsp90 NBD; [3]", "result": "1650 nM and 1620 nM and 1240 nM"}, {"measurement": "Ki", "setting": "human Hsp90 NBD; [4]", "result": "237 nM and 236 nM and 181 nM"}, {"measurement": "Ki", "setting": "human Hsp90 NBD; [5]", "result": 218, "unit": "nM"}]}
